Among the test systems are A549; CAKI-1; HCT-15; HT-29; K562; KM12; MOLT-4; Malme-3M; OVCAR-8; SK-MEL-28; SK-MEL-5; SNB-75; SR; HOP-62; LOX IMVI.
Assay in all cases: NCI-60 cell line screen, 48 h

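A five-concentration, 48-hour dose response in 96-well plates underlies each endpoint, interpolated linearly between surrounding concentrations. GI50 marks 50% less growth.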 The source made the active and inactive calls. No stated cut-off is given here; in the data, active = GI50 up to about 1.1 µM and inactive = higher. A value given as a limit tells only on which side of the number the result lay.

With `O=c1c2ccccc2c2nc3ccccc3nc2n1C1CCCCC1`, the GI50 was > 100 µM (inactive) in the assay with A549; > 100 µM (inactive) with CAKI-1; greater than 100 µM in the assay on HCT-15; > 100 µM (inactive) in the assay with HT-29; > 100 µM (inactive) with K562; > 100 µM (inactive) in the assay on KM12. The GI50 in the assay on MOLT-4 was > 100 µM (inactive); in the assay on Malme-3M it was > 100 µM (inactive); in the assay with OVCAR-8 it was 86.3 µM (inactive); with SK-MEL-28, > 100 µM (inactive); in the assay on SK-MEL-5 it was > 100 µM (inactive); in the assay with SNB-75, 51.9 µM (inactive). Besides, the GI50 in the assay on SR is > 100 µM (inactive).

Consider `COC(=O)c1c(N)n[nH]c1N`, for which the GI50 in the assay with A549, in the assay with CAKI-1, in the assay on HOP-62, in the assay with K562, in the assay with KM12 and in the assay with LOX IMVI was > 100 µM (inactive) each time. Moreover, the GI50 in the assay with MOLT-4, in the assay on OVCAR-8, in the assay with SK-MEL-28, in the assay on SK-MEL-5, in the assay with SNB-75 and with SR was > 100 µM (inactive) each time.

On to `NC(=S)N/N=C1\C(=O)N(CCc2ccccc2)C(=O)C1C(=O)NCCc1ccccc1` (stereo not given), for which the GI50 is > 100 µM (inactive) in the assay on CAKI-1; greater than 100 µM with HCT-15; > 100 µM (inactive) with HOP-62; > 100 µM (inactive) with HT-29; > 100 µM (inactive) in the assay with K562; > 100 µM (inactive) with KM12. For the same molecule, the GI50 in the assay on LOX IMVI was > 100 µM (inactive); with Malme-3M, > 100 µM (inactive); in the assay with OVCAR-8 it was > 100 µM (inactive); in the assay with SK-MEL-28, > 100 µM (inactive); in the assay on SK-MEL-5, > 100 µM (inactive); with SNB-75, 20.7 µM (inactive).

Turning to `CCO/C=C1\N=C(c2ccc(Cl)c(Cl)c2)OC1=O`, the GI50 with A549 is > 100 µM (inactive); in the assay on CAKI-1 it was > 100 µM (inactive); in the assay on HCT-15 it was greater than 100 µM; in the assay on HOP-62, 50 µM (inactive); with HT-29, > 100 µM (inactive); in the assay with K562, > 100 µM (inactive). The GI50 in the assay with KM12, with LOX IMVI, in the assay on MOLT-4, with Malme-3M, in the assay with OVCAR-8 and in the assay on SK-MEL-28 was > 100 µM (inactive) each time. Besides, the GI50 in the assay with SK-MEL-5 is > 100 µM (inactive); with SNB-75, 52.1 µM (inactive).

As to `COC(=O)C(=O)C(C(=O)C(=O)Nc1cc([N+](=O)[O-])ccc1C#N)c1nc2ccccc2nc1O` (stereo not given), the GI50 with A549 was > 100 µM (inactive); in the assay on CAKI-1, > 100 µM (inactive); in the assay on HCT-15, greater than 100 µM; in the assay on HOP-62, > 100 µM (inactive); with HT-29, > 100 µM (inactive); with KM12 it was > 100 µM (inactive). Moreover, the GI50 in the assay on LOX IMVI, in the assay with MOLT-4, in the assay on Malme-3M, in the assay on OVCAR-8, in the assay on SK-MEL-28 and with SK-MEL-5 was > 100 µM (inactive) throughout. For the same molecule, the GI50 in the assay on SNB-75 and in the assay with SR was > 100 µM (inactive) in each case.

Regarding `CCOC(=O)/C(O)=C(/c1n[nH]c(=O)c2ccccc12)[N+](=O)[O-]`, the GI50 was > 100 µM (inactive) in the assay with A549; greater than 100 µM in the assay on HCT-15; > 100 µM (inactive) with HOP-62; > 100 µM (inactive) in the assay with HT-29; > 100 µM (inactive) in the assay on K562; > 100 µM (inactive) in the assay with KM12. Also, the GI50 with LOX IMVI, with MOLT-4, in the assay with Malme-3M, in the assay with OVCAR-8, with SK-MEL-28 and in the assay with SK-MEL-5 was > 100 µM (inactive) each time. Also, the GI50 in the assay on SNB-75 was > 100 µM (inactive).

Take `Cc1ccc(/C=C2\CCCCC2=O)cc1`: the GI50 in the assay with A549 was > 100 µM (inactive); in the assay on CAKI-1 it was 42.7 µM (inactive); with HCT-15, greater than 100 µM; with HOP-62 it was > 100 µM (inactive); in the assay with HT-29, 46.6 µM (inactive); in the assay with K562, 25.7 µM (inactive). Moreover, the GI50 is 31.5 µM (inactive) in the assay on LOX IMVI; 15.8 µM (inactive) in the assay with MOLT-4; > 100 µM (inactive) in the assay with OVCAR-8; > 100 µM (inactive) with SK-MEL-28; 91.6 µM (inactive) with SK-MEL-5; 29.6 µM (inactive) with SNB-75.

In the case of `COC(=O)C1=C(C(=O)OC)C2(c3ccccc3)OC1(c1ccccc1)c1cc3ccccc3cc12`, the GI50 in the assay with A549 was 2.43 µM (inactive); in the assay on CAKI-1 it was 1.29 µM (inactive); in the assay with HCT-15, 1.82 µM; with HOP-62 it was 13.3 µM (inactive); in the assay with HT-29 it was 1.77 µM (inactive); with K562 it was 1.51 µM (inactive). The GI50 with KM12 is 1.97 µM (inactive); in the assay on LOX IMVI it was 1.32 µM (inactive); in the assay with MOLT-4, 0.733 µM (active); in the assay on Malme-3M it was 1.6 µM (inactive); in the assay with OVCAR-8, 1.56 µM (inactive); in the assay with SK-MEL-28, 1.87 µM (inactive). For the same molecule, the GI50 is 2.21 µM (inactive) in the assay with SK-MEL-5 and 0.604 µM (active) in the assay on SNB-75.

Regarding `c1ccc(C(c2ccccc2)c2ccccn2)cc1`, the GI50 in the assay with A549 was > 100 µM (inactive); in the assay with CAKI-1, > 100 µM (inactive); in the assay with HCT-15 it was greater than 100 µM; in the assay on HOP-62, > 100 µM (inactive); in the assay on HT-29 it was > 100 µM (inactive); in the assay with K562, > 100 µM (inactive). Further, the GI50 with KM12, in the assay with LOX IMVI, in the assay with Malme-3M, in the assay with OVCAR-8, in the assay with SK-MEL-28 and in the assay with SK-MEL-5 was > 100 µM (inactive) each time. In addition, the GI50 in the assay with SNB-75 was 52.5 µM (inactive).

With `COc1cc(Cl)c2c3c(c(C(=O)c4ccccc4)oc13)CCC2`, the GI50 in the assay on A549 was > 100 µM (inactive); in the assay on CAKI-1, > 100 µM (inactive); in the assay with HCT-15, greater than 100 µM; with HOP-62, > 100 µM (inactive); in the assay on HT-29, > 100 µM (inactive); with K562 it was 41.7 µM (inactive). In addition, the GI50 with LOX IMVI, in the assay with MOLT-4, with OVCAR-8, with SK-MEL-28, in the assay on SK-MEL-5 and in the assay on SNB-75 was > 100 µM (inactive) throughout.

For the molecule `Cc1c2n(c(=O)[nH]c1=O)C1OC(CO)C(N=[N+]=[N-])C1O2` (stereo not given), the GI50 is > 100 µM (inactive) in the assay with A549; > 100 µM (inactive) with CAKI-1; greater than 100 µM in the assay with HCT-15; > 100 µM (inactive) with HOP-62; > 100 µM (inactive) in the assay with HT-29; 92.5 µM (inactive) with K562. Further, the GI50 in the assay with KM12, in the assay with LOX IMVI, in the assay on MOLT-4, in the assay on OVCAR-8, with SK-MEL-28 and in the assay on SK-MEL-5 was > 100 µM (inactive) throughout. Besides, the GI50 with SNB-75 and in the assay on SR was > 100 µM (inactive) throughout.

Take `CN(CC1NCCCC1O)C12CC3CC(CC(C3)C1)C2` (stereo not given): the GI50 with A549 is > 100 µM (inactive); with CAKI-1, > 100 µM (inactive); in the assay on HCT-15, greater than 100 µM; with HOP-62, > 100 µM (inactive); with HT-29, > 100 µM (inactive); with K562 it was 70.8 µM (inactive). Besides, the GI50 in the assay on KM12, in the assay on LOX IMVI, in the assay with MOLT-4, with Malme-3M and in the assay with OVCAR-8 was > 100 µM (inactive) each time.

In the case of `CCOC(=O)CN(c1ccccc1)c1nc(=[N+](C)C)ss1`, the GI50 is 30.4 µM (inactive) in the assay on A549; 50.9 µM (inactive) in the assay with CAKI-1; 16.4 µM in the assay with HCT-15; 33 µM (inactive) with HOP-62; 6.78 µM (inactive) with K562; 1.77 µM (inactive) with MOLT-4. Moreover, the GI50 with Malme-3M is 21.2 µM (inactive); in the assay with OVCAR-8, 20 µM (inactive); with SK-MEL-28 it was 26.4 µM (inactive); in the assay with SNB-75, 29 µM (inactive); in the assay on SR, 0.678 µM (active).

In the case of `O=c1cc(CO)oc2c3c(cc(O)c12)OCC(COC1OC(CO)C(O)C(O)C1O)=CC3` (stereo not given), the GI50 with A549 was > 100 µM (inactive); in the assay with CAKI-1, > 100 µM (inactive); in the assay on HCT-15, greater than 100 µM; in the assay with HOP-62, > 100 µM (inactive); with HT-29 it was > 100 µM (inactive); with K562, > 100 µM (inactive). For the same molecule, the GI50 in the assay with KM12, with LOX IMVI, in the assay on MOLT-4, with OVCAR-8, with SK-MEL-28 and in the assay on SK-MEL-5 was > 100 µM (inactive) each time. Also, the GI50 with SNB-75 and in the assay with SR was > 100 µM (inactive) in each case.

`CCc1ccccc1NC(=O)CC1NC(=O)CS1` (stereo not given): the GI50 in the assay on A549, in the assay with CAKI-1, with HOP-62, in the assay with K562, in the assay on KM12 and in the assay with LOX IMVI was > 100 µM (inactive) throughout. Moreover, the GI50 is > 100 µM (inactive) in the assay with MOLT-4; 55.2 µM (inactive) in the assay on Malme-3M; > 100 µM (inactive) in the assay with OVCAR-8; > 100 µM (inactive) in the assay on SK-MEL-28; > 100 µM (inactive) with SK-MEL-5; 37.5 µM (inactive) in the assay on SNB-75.

As for `C[C@]12CC[C@H](O)CC1CCC[C@@H]2O` (stereo not given in full), the GI50 was > 100 µM (inactive) in the assay with A549; > 100 µM (inactive) in the assay on CAKI-1; greater than 100 µM with HCT-15; > 100 µM (inactive) in the assay on HOP-62; > 100 µM (inactive) in the assay with HT-29; > 100 µM (inactive) with K562. The GI50 with KM12, in the assay with LOX IMVI, in the assay on MOLT-4, with Malme-3M, with OVCAR-8 and in the assay with SK-MEL-28 was > 100 µM (inactive) each time. Further, the GI50 with SK-MEL-5 and in the assay on SNB-75 was > 100 µM (inactive) throughout.

The record behind these values is ChEMBL document CHEMBL1201862, “PubChem BioAssay data set” (2004).
